Reference: US6884777B1, “Method for treating respiratory distress syndrome” (The Nemours Foundation, priority 2000, dated 2005)

Tests used:
[1] = test system: pregnant rats; experiment: Antenatal treatment of pregnant rats: weight of maternal and fetal lungs; assay type: in vivo, rat; settings: delivery at d18; for Weight fetal lung (g)/g fetus / Average weight fetal lungs: antenatal treatment 48 h; for Average weight fetal lungs: n = 9; for increase of average fetal lung weight in relation to body weight: i.p. at d16 of gestation and 24 h later, leptin 1 mg/kg, dexamethasone 6 mg/kg, vs control
Method: Leptin (1 mg/kg body weight) was administered to pregnant rats at d16 of gestation and 24 h later by intraperitoneal injection. Dexamethasone at 6 mg per kg body weight was administered at similar time intervals as leptin. In addition, the effect of a combination of leptin and dexamethasone treatment was tested. After 48 h of leptin, dexamethasone or leptin/dexamethasone exposure, premature delivery of the rat pups was induced at d18, which is similar to 30 weeks of gestation in the human. The fetuses from each litter were pooled and weighed, and various tissues from both the rat fetuses and mothers were also dissected and weighed. […] Antenatal treatment with dexamethasone increased fetal lung weight by 41%.

[2] = test system: SP-B (surfactant protein-B); experiment: Western blot of SP-B in 21-day gestation fetal rat lung explants cultured with leptin; assay type: cell-based; settings: d21 explants
Method: FIG. 1 is a Western blot analysis of SP-B (surfactant protein-B) from 21-day gestation, fetal rat lung explants cultured in the presence or absence of leptin. Fetal lung explants were exposed to either (A) 1 ng/ml or (B) 10 ng/ml leptin from initiation of culture (day 0). Explants were harvested and protein extracts were prepared on days (d) 1, 2, and 3 of culture. Western blots were probed with an antibody specific to rat SP-B.
We have used a fetal lung explant model to mimic the conditions of the premature lung. Lungs from d21 rat fetuses, term being 22 days, were dissected free of heart, trachea and bronchi and placed in ice-cold serum free Waymouth medium and cut into 1 mm^3 pieces on a McIlwain tissue chopper. The lung explants were placed in tissue culture dishes that were scratched (along each half) to facilitate attachment of explants. The excess medium was aspirated and fresh medium (2 ml for 60 mm plate) was gently placed on the explants. The 17-21 d explants were incubated in 95% O2-5% CO2, since incubation of these explants in 5% CO2 in air can cause compression of airways (Gross and Wilson, J. Appl. Physiol. 55: 1725-32, 1983). The petri dishes were placed on a tilting platform and allowed to rest for 90 min in a humidified atmosphere in a CO2 incubator. Thereafter, the plates were tilted at 34 cycles per minute so that during each cycle, one half of the petri dish was exposed to gas phase and the other half was covered with the medium. Leptin at either 1 or 10 ng/ml was added to the explant cultures on the day of establishment of the culture (day 0). The explants were cultured for varying periods of time for up to 3 days, and protein extracts were prepared to establish a time course for leptin effects on the fetal lung. Surfactant proteins were separated by electrophoresis on 15% polyacrylamide—SDS gels, and transferred to nitrocellulose membranes by electroblotting. The membranes were blocked with 2% gelatin (BioRad), treated overnight with anti-SP-B, and then with secondary antibody (goat anti-rabbit HRP-conjugated antibody). […]

[3] = test system: SP-A, SP-B, SP-C mRNA; experiment: RT-PCR of surfactant protein mRNA in day 17 fetal lung explant cultures; assay type: cell-based, rat; settings: 1 ng/ml leptin
Method: Cultures were exposed to 1 ng/ml leptin (lanes 3, A-C) or control medium (lanes 2, A-C), and total RNA was isolated at the indicated day of culture. Total RNA was reverse transcribed and amplified with both β-actin and […] PCR primers. In each figure, lane 1 is the time of initiation of culture (day 0). Low levels of all surfactant RNAs were detected in the uncultured cells (lanes 1, A-C). The size of the β-actin RT/PCR product is 492 bp; the size of SP-A is 352 bp; SP-B is 201 bp, and SP-C is 284 bp.
Qualitative RT/PCR detection of surfactant mRNA was performed using the Ambion QuantumRNA kit (Ambion, Austin, Tex.) and 1 μg of total RNA isolated from explants cultured for 3 days in culture. Lanes 1, 3,5: control day 3; lanes 2, 4, 6: 1 ng/ml leptin day 3.
To explore the effect of gestational age on surfactant production in response to leptin, we exposed younger lung explant cultures (d17) to 1 ng/ml leptin. Total RNA was extracted by homogenizing the explants in 4M guanidine thiocyanate, applying the lysate on a Qiagen RNeasy column (Qiagen, Chatsworth, Calif.), and recovering total RNA according to the manufacturer's instructions. RNA was quantified by measurement of absorbancy at 260 nm (A260). The quality of RNA was assessed by the A260/A280 ratio and by separation on agarose gels. Total RNA (1 μg) was brought up to 10 μl in DEPC-treated water. The sample was heated to 75° C. for 3 min, placed on ice, and cDNA synthesis was performed by reverse transcription for 15 min at 42° C. in a 20 μl reaction containing 1×PCR buffer II (Perkin-Elmer), 5 mM MgCl2, 1.25 mM each dNTP, 1 U/μl RNasin (Promega), 12.5 μg/μl oligo (dT) 15, and 2.5 U/μl AMV reverse transcriptase (Promega Madison, Wis.). Subsequent amplification of the cDNA sequence was performed with 10 μl of the reverse transcription reaction in 1×Taq buffer, 5% DMSO, 25 pmol each primer (Table 1), and 1.25 U Taq polymerase in a 50 μl reaction volume.
For assessment of the relative levels of SP-A, SP-B and SP-C transcripts, a multiplex RT/PCR reaction with β-actin was used. The temperature profile for the PCR reactions consisted of a 2 min melting step at 95° C., then 30 cycles of 30 s at 94° C., 30 s at 55° C., and 60 sec at 65° C., followed by a final extension step of 5 min at 72° C. RT-PCR products were separated by size on a 4% agarose gel and stained with ethidium bromide. Gel visualization and quantitative analysis of relative band intensities was performed using Eagle Eye II hardware and software (Stratagene, La Jolla, Calif.).
However, leptin also increases the levels of P-actin in fetal lung explant cultures. […] Therefore, we chose to use 18S rRNA to determine the relative levels of surfactant mRNA because of the invariant expression of 18S rRNA across tissues and treatments. Since 18S rRNA is much more abundant than any mRNA species, modified 18S rRNA primers called competimers (Ambion) are used that cannot be extended by Taq polymerase. By adjusting the ratio of competimers to normal 18S rRNA primers, the RT/PCR signal for 18S rRNA can be decreased to the level of even rare messages, as described by the manufacturer. […] These experiments support the hypothesis that leptin has an effect on the maturation of type II alveolar cells.

[4] = test system: leptin receptor OB-Rb mRNA; experiment: RT-PCR of leptin receptor expression in day 17 fetal lung explant cultures; assay type: cell-based, rat; settings: d17 fetal lung explants, 3 days; 1 ng/ml leptin or 10 nM dexamethasone
Method: FIG. 4 depicts RT-PCR analysis of leptin receptor expression in day 17 fetal lung explant cultures. Total RNA was reverse transcribed and amplified with either the short (OB-Ra) or the long (OB-Rb) form of the leptin receptor. Day 0 (Cd0) represents the time of initiation of culture. The fetal lung explants were exposed for 3 days to either control medium (Cd3), 1 ng/ml leptin (Ld3), or 10 nM dexamethasone (Dexd3). The size of the OB-Ra RT/PCR product is 479 bp and OB-Rb is 262 bp.
To explore the effect of gestational age on surfactant production in response to leptin, we exposed younger lung explant cultures (d17) to 1 ng/ml leptin. Total RNA was extracted by homogenizing the explants in 4M guanidine thiocyanate, applying the lysate on a Qiagen RNeasy column (Qiagen, Chatsworth, Calif.), and recovering total RNA according to the manufacturer's instructions. RNA was quantified by measurement of absorbancy at 260 nm (A260). The quality of RNA was assessed by the A260/A280 ratio and by separation on agarose gels. Total RNA (1 μg) was brought up to 10 μl in DEPC-treated water. […]

[5] = test system: isolated type II alveolar cells; experiment: RT-PCR of surfactant and GAPDH mRNA in cultured isolated fetal type II alveolar cells; assay type: cell-based, rat; settings: 1 ng/ml leptin, 24 h, d19 type II cells
Method: FIG. 5 depicts RT-PCR analysis of surfactant and GADPH (glyceraldehyde phosphate dehydrogenase) mRNA expression in cultured isolated type II alveolar cells. Cells were exposed to either 1 ng/ml leptin (1 L) or 10 ng/ml leptin (10 L). Control cells were not exposed to leptin.
To determine if the leptin effect on surfactant production was due to a direct effect of leptin on the type II alveolar cell, we determined whether the effects of leptin could be reproduced in isolated type II alveolar cells in culture. Alveolar type II cells were obtained from the lungs of 19-d gestation fetal rats by the method described by Bhandari et al., (Pediatr. Res. 41:166-71, 1997). In brief, lungs of 19-day gestation fetal rats were removed, dissected free of connective tissue and nonparenchymal pulmonary tissue, and cultured as explants for 40-48 h in serum free Waymouth MB 752/1 medium with penicillin and streptomycin in humidified 95% O2/5% CO2 at 37° C. […] The explant cells were then harvested and the cells dissociated using a solution of collagenase, trypsin and DNase. The mixed cell suspension was subjected to three differential adhesions to remove fibroblasts. The non-adherent suspension containing an enriched population of fetal type II cells was plated at 2×10^6 cells/35 mm dish in 2 ml of minimum essential medium containing penicillin (100 U/ml), kanamycin ([…]) and 2% fetal bovine serum. The cells were cultured for 20-22 h at 37° C. in […] (Bhandari et al., Pediatr. Res. 41:166-71, 1997). Cultures contain 90-95% type II cells of which >99% are viable as determined by exclusion of the vital dye, trypan blue. The usual yield of type II cells from the lungs of the fetuses (10-16) per pregnant rat is approximately 10^7 cells.
Type II cells from d19 fetal lungs were cultured for 24 h and then exposed to either 1 or 10 ng/ml leptin for 24 h. Total RNA was isolated from these cells and then examined for SP-A, SP-B, SP-C, and GAPDH (housekeeping gene) mRNA expression.

[6] = test system: type II alveolar cells; experiment: Histologic analysis of fetal lung after antenatal treatment (alkaline phosphatase staining); assay type: in vivo, rat; settings: antenatal treatment for 48 h, alkaline phosphatase staining (FIG. 6)
Method: FIG. 6 depicts the effect of antenatal treatment with leptin or dexamethasone on fetal lung morphology. Fetal lung sections were stained with a histochemical stain for alkaline phosphatase, which identifies type II cells. Control, no leptin; dexamethasone (6 mg/ml for 48 h); leptin (0.25 mg/ml for 48 h).
Histologic analysis of the lung tissue was done to determine the basis for the increased fetal lung weight. Type II cells were identified by alkaline phosphatase staining as previously described (Post and Smith, Am. Rev. Respir. Dis. 137: 525-30, 1988). Unfixed frozen 5 μm sections of fetal lung tissue were stained histochemically with alkaline phosphatase at pH 8.74 to identify type II alveolar cells. Slides were incubated for 60 minutes at 37° C. in 25 ml of 0.2M Tris-HCl buffer and 25 ml of deionized water, 5 mg of Naphthol AS-BI phosphate, 0.1 ml dimethylformamide, and 30 mg of fast red TR. The slides were then rinsed in 3 changes of deionized water, counterstained for 30 seconds in Harris hematoxylin and blued in running water for 3-5 minutes. Slides were mounted from water in Advantage™.

[7] = test system: ob/ob mice; settings: cited from earlier work
[8] = test system: cornea from normal rats; settings: but not fa/fa Zucker rats, Sierra-Honigmann et al.; cited from earlier work
[9] = d17 explants, multiplex RT/PCR with β-actin (FIG. 2)
[10] = d17 lung explants, 3 days in culture

Row | Compound | Weight fetal lung (g)/g fetus [1] [g/g fetus] | Average weight fetal lungs [1] | increase of average fetal lung weight in relation to body weight [1] [%] | SP-B production ([2]; 1 ng/ml leptin, 48 or 72 h exposure, vs control cultures) | SP-B levels ([2]; 10 ng/ml leptin, 48 and 72 h) | SP-B production ([2]; 10 ng/ml leptin, 24 h) | SP-A mRNA levels [3, 9] | SP-C mRNA levels [3, 9] | SP-A mRNA level relative to 18S rRNA, increase [3, 10] [fold] | SP-B mRNA level relative to 18S rRNA, increase [3, 10] [fold] | SP-C mRNA level relative to 18S rRNA, increase [3, 10] [fold] | levels of β-actin ([3]; fetal lung explant cultures (FIG. 2)) | OB-Rb mRNA levels [4] | SP-A mRNA levels [5] | SP-B mRNA levels [5] | SP-C mRNA levels [5] | number of type II alveolar cells in fetal lung [6] | respiratory depression ([7]; O'Donnell et al. 1999) | volume-dependent decrease in lung compliance ([7]; Tankersley et al. 1998) | neovascularization in cornea [8]
1 | C[C@@H]1C[C@H]2[C@@H]3CCC4=CC(=O)C=C[C@]4(C)[C@@]3(F)[C@@H](O)C[C@]2(C)[C@@]1(O)C(=O)CO [Dexamethasone, dexamethasone, reference compound] | 0.52 | 0.79 (n = 9) g | 41 | – | – | – | – | – | – | – | – | – | – | – | – | – | – | – | – | –
2 | leptin | 0.56 | 0.87 (n = 9) g | 51 | increases SP-B production above that of the control cultures | decreases SP-B levels | increases SP-B production | significantly increases | significantly increases | 1.6 | 5 | 2 | increases | decreases | increased | increased | increased | increase in the number of type II alveolar cells | prevent respiratory depression | ameliorated | induces neovascularization
